From ChEMBL document CHEMBL1148617, “Design, synthesis, and structure-activity relationships of 1-,3-,8-, and 9-substituted-9-deazaxanthines at the human A2B adenosine receptor” (J Med Chem, 2006)

How the values were obtained:
Adenosine receptor A2a = Adenosine receptor A2a (Homo sapiens, UniProt P29274); assay: Displacement of [3H]ZM-241385 from recombinant human adenosine A2A receptor expressed in HeLa cells at 0.1 uM
[1] = biological target: T1, Adenosine receptor A2b (Homo sapiens) (UniProt P29275); assay: Displacement of [3H]DPCPX from recombinant human adenosine A2B receptor expressed in HEK293 cells at 0.1 uM; type: cell-based
T1 sequence (whole entry): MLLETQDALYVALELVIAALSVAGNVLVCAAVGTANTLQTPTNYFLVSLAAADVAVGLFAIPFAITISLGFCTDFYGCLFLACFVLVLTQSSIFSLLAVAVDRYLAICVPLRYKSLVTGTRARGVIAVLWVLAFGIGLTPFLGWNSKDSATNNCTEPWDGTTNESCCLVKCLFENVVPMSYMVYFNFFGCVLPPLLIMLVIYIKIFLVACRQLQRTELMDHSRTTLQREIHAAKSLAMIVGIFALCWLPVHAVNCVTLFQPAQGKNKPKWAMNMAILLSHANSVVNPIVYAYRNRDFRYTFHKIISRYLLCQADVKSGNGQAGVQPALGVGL

[2] = biological target: T1, Adenosine receptor A2b (Homo sapiens); assay: Displacement of [3H]DPCPX from recombinant human adenosine A2B receptor expressed in HEK293 cells at 0.01 uM

Chain of Adenosine receptor A2a (P29274 whole entry): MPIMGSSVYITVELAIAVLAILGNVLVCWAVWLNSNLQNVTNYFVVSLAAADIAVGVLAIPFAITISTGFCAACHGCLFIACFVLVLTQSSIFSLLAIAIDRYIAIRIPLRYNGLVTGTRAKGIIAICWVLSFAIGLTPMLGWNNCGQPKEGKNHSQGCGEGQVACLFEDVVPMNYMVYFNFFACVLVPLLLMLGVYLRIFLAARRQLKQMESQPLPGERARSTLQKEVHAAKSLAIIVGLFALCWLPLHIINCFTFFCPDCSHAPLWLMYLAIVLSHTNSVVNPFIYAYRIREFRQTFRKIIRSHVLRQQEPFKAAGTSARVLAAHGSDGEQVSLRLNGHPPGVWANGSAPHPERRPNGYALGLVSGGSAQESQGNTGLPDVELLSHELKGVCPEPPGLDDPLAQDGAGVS

SMILES | inhibition (Adenosine receptor A2a) | inhibition [1] | inhibition [2]
Cn1c(=O)c2[nH]c(-c3cccc(OCC(=O)O)c3)cc2n(C)c1=O | 15% | 23% | 
CCCn1c(=O)c2[nH]c(-c3ccc(OCC(=O)OCC)cc3OC)cc2n(CCC)c1=O | 10% | 1% | 
O=C(COc1ccc(-c2cc3c([nH]2)c(=O)n(CC(F)(F)F)c(=O)n3CC(F)(F)F)cc1)Nc1ccc(F)cc1 | 18% | 68% | 22%
Cn1c(=O)c2[nH]c(-c3ccc(OCC(=O)O)cc3)cc2n(CCN2CCOCC2)c1=O | 11% | 18% | 
CCCn1c(=O)c2[nH]c(-c3ccc(OCC(=O)Nc4ccc(F)cc4)cc3OC)cc2n(CCC)c1=O | 43% | 27% | 16%
CCCn1c(=O)c2[nH]c(-c3ccc(OCC(=O)NC(C(=O)O)c4ccccc4)cc3)cc2n(CCC)c1=O (stereo not drawn) | 3% | 45% | 38%
CCCn1c(=O)c2[nH]c(-c3ccc(OCC(=O)Nc4ccc(C)cn4)cc3)cc2n(C)c1=O | 12% | 73% | 24%
CN(C(=O)COc1ccc(-c2cc3c([nH]2)c(=O)n(C)c(=O)n3C)cc1)c1ccccc1 | 0% | 61% | 15%
O=C(COc1ccc(-c2cc3c([nH]2)c(=O)n(CC(F)(F)F)c(=O)n3CC(F)(F)F)cc1)Nc1ccccc1 | 4% | 57% | 15%
CC(Oc1ccc(-c2cc3c([nH]2)c(=O)n(C)c(=O)n3C)cc1)C(=O)O (stereo not drawn) | 9% | 34% | 5%
CCCn1c(=O)c2[nH]c(-c3ccc(OCC(=O)Nc4cc(C)ccn4)cc3)cc2n(CCC)c1=O | 34% | 60% | 25%
Cn1c(=O)c2[nH]c(-c3ccc(OCC(=O)N[C@H]4C(O)O[C@H](CO)[C@@H](O)[C@@H]4O)cc3)cc2n(C)c1=O (stereo partly drawn) | 13% | 33% | 7%
COCCCn1c(=O)c2[nH]c(-c3ccc(OCC(=O)Nc4ccc(Br)cc4)cc3)cc2n(CCCOC)c1=O | 30% | 85% | 45%
CCCn1c(=O)c2[nH]c(-c3ccc(OCC(=O)Nc4ccc(F)cc4O)cc3)cc2n(CCC)c1=O | 80% | 88% | 23%
CCCn1c(=O)c2[nH]c(-c3ccc(OCC(=O)Nc4ccc(Br)cc4)cc3Cl)cc2n(CCC)c1=O | 31% | 79% | 17%
CCCn1c(=O)c2[nH]c(-c3ccc(N(C=O)CC(=O)Nc4ccccc4)cc3)cc2n(CCC)c1=O | 61% | 46% | 10%
CCCn1c(=O)c2[nH]c(-c3ccc(OCC(=O)Nc4cc(C)cc(C)n4)cc3)cc2n(CCC)c1=O | 27% | 53% | 12%
CCCn1c(=O)c2[nH]c(-c3ccc(OCC(=O)Nc4ncccc4O)cc3)cc2n(C)c1=O | 22% | 71% | 31%
COCCCn1c(=O)c2[nH]c(-c3ccc(OCC(=O)Nc4ccc(F)cc4)cc3)cc2n(CCCOC)c1=O | 20% | 68% | 24%
CCCn1c(=O)c2[nH]c(-c3ccc(OCC(=O)NC(CCl)c4ccccc4)cc3)cc2n(CCC)c1=O (stereo not drawn) | 75% | 74% | 25%
CCCn1c(=O)c2[nH]c(-c3ccc(OCC(=O)N[C@H](C)[C@H](O)c4ccccc4)cc3)cc2n(CCC)c1=O | 18% | 70% | 14%
CCCn1c(=O)c2[nH]c(-c3ccc(OC(C)(C)C(=O)O)cc3)cc2n(CCC)c1=O | 6% | 26% | 12%
CCCn1c(=O)c2[nH]c(-c3ccc(OCC(=O)Nc4ccc(C(F)(F)F)cc4)cc3)cc2n(CCC)c1=O | 19% | 85% | 14%
CCCn1c(=O)c2[nH]c(-c3ccc(OC(C)(C)C(=O)Nc4ccc(Br)cc4)cc3)cc2n(CCC)c1=O | 54% | 87% | 49%
CCCn1c(=O)c2[nH]c(-c3ccc(N(C=O)CC(=O)O)cc3)cc2n(CCC)c1=O | 9% | 40% | 9%
O=C(O)COc1ccc(-c2cc3c([nH]2)c(=O)n(CC2CC2)c(=O)n3CC2CC2)cc1 | 40% | 69% | 27%
Cn1c(=O)c2[nH]c(-c3ccc(OCC(=O)NCc4ccncc4)cc3)cc2n(C)c1=O | 37% | 51% | 5%
CCCn1c(=O)c2[nH]c(-c3ccc(OCC(=O)Nc4ccccc4)cc3OC)cc2n(CCC)c1=O | 35% | 17% | 3%

SMILES | inhibition (Adenosine receptor A2a) | inhibition [1] | inhibition [2]
CCCn1c(=O)c2[nH]c(-c3ccc(OCC(=O)O)cc3OC)cc2n(CCC)c1=O | 10% | 8% | 
CCCn1c(=O)n(C)c(=O)c2[nH]c(-c3ccc(OCC(=O)Nc4ccc(Br)cc4)cc3)cc21 | 91% | 84% | 
CCOC(=O)c1ccc(NC(=O)COc2ccc(-c3cc4c([nH]3)c(=O)n(C)c(=O)n4C)cc2OC)cc1 | 0% | 47% | 10%
CCCn1c(=O)c2[nH]c(-c3ccc(OCC(=O)Nc4cc(F)ccc4O)cc3)cc2n(CCC)c1=O | 73% | 89% | 29%
Cn1c(=O)c2[nH]c(-c3ccc(OCC(=O)Nc4ccc(F)cc4)cc3)cc2n(CCN2CCOCC2)c1=O | 10% | 27% | 16%
CCCn1c(=O)c2[nH]c(-c3ccc(OC(C)(C)C(=O)O)cc3)cc2n(C)c1=O | 3% | 50% | 8%
CCCn1c(=O)c2[nH]c(-c3ccc(OCC(=O)NC(CO)c4ccccc4)cc3)cc2n(CCC)c1=O (stereo not drawn) | 53% | 77% | 30%
CCCn1c(=O)n(C)c(=O)c2[nH]c(-c3ccc(OCC(=O)NCc4ccccc4)cc3)cc21 | 19% | 21% | 10%
Cn1c(=O)c2[nH]c(-c3ccc(OCC(=O)O)cc3)c(Br)c2n(C)c1=O | 4% | 24% | 
CCCn1c(=O)c2[nH]c(-c3ccc(OCC(=O)O)cc3Cl)cc2n(CCC)c1=O | 6% | 10% | 14%
Cn1c(=O)c2[nH]c(-c3ccc(OCC(=O)Nc4cnccn4)cc3)cc2n(C)c1=O | 20% | 44% | 11%
COc1cc(NC(=O)COc2ccc(-c3cc4c([nH]3)c(=O)n(C)c(=O)n4C)cc2)nc(OC)n1 | 14% | 50% | 12%
CCCn1c(=O)c2[nH]c(-c3ccc(OC(C(=O)Nc4ccc(F)cc4)c4ccccc4)cc3)cc2n(CCC)c1=O (stereo not drawn) | 65% | 84% | 32%
CC(C)Cn1c(=O)c2[nH]c(-c3ccc(OCC(=O)O)cc3)cc2n(C)c1=O | 1% | 28% | 
O=C(COc1ccc(-c2cc3c([nH]2)c(=O)n(CC(F)(F)F)c(=O)n3CC(F)(F)F)cc1)Nc1ccc(Br)cc1 | 11% | 79% | 29%
CCCn1c(=O)c2nc(-c3ccc(OCC(N)=O)cc3)[nH]c2n(CCC)c1=O | 10% | 56% | 11%
CCCn1c(=O)n(C)c(=O)c2[nH]c(-c3ccc(OCC(=O)Nc4ccc5c(c4)CCC5=O)cc3)cc21 | 26% | 50% | 12%
CCCn1c(=O)c2[nH]c(-c3ccc(OCC(=O)NCc4ccncc4)cc3)cc2n(C)c1=O | 3% | 49% | 27%
COCCCn1c(=O)c2[nH]c(-c3ccc(OCC(=O)Nc4ccccc4)cc3)cc2n(CCCOC)c1=O | 28% | 65% | 1%
CCCn1c(=O)c2[nH]c(-c3ccc(OCC(=O)Nc4cnccn4)cc3)cc2n(CCC)c1=O | 34% | 68% | 10%
CCCn1c(=O)c2[nH]c(-c3ccc(OCC(=O)Nc4ncccc4C)cc3)cc2n(C)c1=O | 26% | 68% | 25%
COCCCn1c(=O)c2[nH]c(-c3ccc(OCC(=O)O)cc3)cc2n(CCCOC)c1=O | 9% | 12% | 10%
CCCn1c(=O)c2[nH]c(-c3ccc(OCC(=O)NC(C(=O)OC)c4ccccc4)cc3)cc2n(CCC)c1=O (stereo not drawn) | 39% | 58% | 29%
CCCn1c(=O)n(C)c(=O)c2[nH]c(-c3ccc(OCC(=O)N(C)Cc4ccccc4)cc3)cc21 | 15% | 32% | 15%
CCCn1c(=O)c2[nH]c(-c3ccc(OCC(=O)Nc4cccc(C)n4)cc3)cc2n(CCC)c1=O | 45% | 68% | 20%
CCCn1c(=O)c2[nH]c(-c3ccc(OCC(=O)Nc4cccnc4)cc3)cc2n(CCC)c1=O | 48% | 83% | 19%
CCCn1c(=O)c2[nH]c(-c3ccc(N(C=O)CC(=O)Nc4ccc(F)cc4)cc3)cc2n(CCC)c1=O | 89% | 93% | 24%
